Data from patent publication EP4733299A1, “SULFUR-CONTAINING FUSED RING COMPOUND, PHARMACEUTICAL COMPOSITION CONTAINING SAME, AND PREPARATION METHOD THEREFOR AND USE THEREOF” (Shenzhen Braegen Pharmaceutical Co., Ltd., priority 2023, dated 2024).

Target: T1, a-Syn aggregates (Homo sapiens, UniProt P37840, A53T)
T1 construct: tissue The Jackson Laboratory 017682; host or cells: brain sections of rotenone-treated transgenic mice
Assay: Binding specificity on brain slices of rotenone-treated SNCA transgenic mice
Conditions: for capture of a-Syn aggregates: brain slices, rotenone-treated SNCA Tg mice, Fig. 2
Experimental: To further explore whether the positive compounds selectively bind to Lewy bodies, brain slices from mice were used to test the binding specificity assays.
Staining with a-Synuclein protein coding gene (SNCA) transgenic mice (the Jackson Laboratory; stock numbers: 017682) were treated with rotenone (Oral gavage of rotenone under the following protocol: Mice were treated with 0.1 mL/25 g of vehicle containing 1% methylcellulose (Sigma, Catalog No.: M0512) and 1.25% chloroform (Sigma, Catalog No.: 2432) or a solution containing 0.625 mg/mL of rotenone (ULTRA Scientific, Catalog No.: PST-890) with 1% methylcellulose and 1.25% chloroform. We prepared rotenone solution by dissolving rotenone in chloroform and then diluting into 1% methylcellulose solution while mixing vigorously. Rotenone or vehicle control was orally administered with a 1.2 x 60 mm gavage (Unimed, Switzerland) once a day for 5 days/week, consecutively for 3 months.), which contains abundant LB-like inclusions. Furthermore, brain slices from NFT abundant Tau P301S mice and Aβ-enriched 5 x FAD mice were also used separately.
The brain slices were fixed and incubated for 12 h at 4 °C with primary antibodies followed by incubation with Alexa Fluor 568-, Alexa Fluor 488-, or Alexa Fluor 647-conjugated secondary antibodies (Invitrogen) for 3 h at room temperature. Then stained with ThS (Sigma, Catalog No.: T1892) or candidate compounds at room temperature, 4',6-diamidino-2-phenylindole (DAPI, 1 µg/ml) (Sigma-Aldrich) was used for the nuclear staining. The slides were imaged with Olympus FluoView FV1000 confocal laser scanning microscope using Olympus FluoView software to acquire data.

Compound	capture of a-Syn aggregates	co-localization with aggregates in the brain sections (positive control, mouse brain sections)
COc1cc(/C=C/c2nc3cc(C)c(N(C)CCOCCF)cc3s2)ccc1O [Compound A, (E)-4-(2-(6-((2-(2-fluoroethoxy)ethyl)(methyl)amino)-5-methylbenzo[d]thiazol-2-yl)vinyl)-2-methoxyphenol]	sensitively captured a-Syn aggregates	–
COc1cc(/C=C/c2nc3cc(C)c(N(C)CCOCCF)cc3s2)cc(Br)c1O [Compound S, (E)-2-bromo-4-(2-(6-((2-(2-fluoroethoxy)ethyl)(methyl)amino)-5-methylbenzo[d]thiazol-2-yl)vinyl)-6-methoxyphenol]	sensitively captured a-Syn aggregates	–
thioflavin-S [ThS, reference compound]	–	co-localized with all of these aggregates
